Source: ChEMBL document CHEMBL1152925, “Vladimuliecins A and B: cytotoxic pentacyclic pregnanols from Vladimiria muliensis” (J Nat Prod, 2009)

Assays:
Format in all cases: functional, cell-based
HeLa = test: Cytotoxicity against human HeLa cells after 48 hrs by SRB assay
SMMC-7721 = test: Cytotoxicity against human SMMC7721 cells after 48 hrs by SRB assay
HL-60 = test: Cytotoxicity against human HL60 cells after 48 hrs by SRB assay
[1] = Homo sapiens, SMMC-7721, 48 h, read-out: IC50
[2] = Homo sapiens, HL-60, 48 h, read-out: IC50

## C[C@@H](O)[C@H]1CC[C@@]2(O)[C@]1(C)CC[C@@H]1[C@@]3(C)CC[C@@H]4C[C@@]43[C@H](O)C[C@]12O
HeLa; hela
  IC50: 165 µM
SMMC-7721; smmc-7721
  IC50: 101 µM
HL-60; hl-60
  IC50: 138 µM

## CO[C@@]12[C@H](COC(N)=O)C3=C(C(=O)C(C)=C(N)C3=O)N1C[C@@H]1N[C@@H]12 [MITOMYCIN]
HeLa; Homo sapiens, HeLa, 48 h, read-out: IC50
  IC50: 3.3 µM
SMMC-7721; [1]
  IC50: 5.4 µM
HL-60; [2]
  IC50: 1.5 µM

## CC(=O)O[C@H](C)[C@H]1CC[C@@]2(O)[C@]1(C)CC[C@@H]1[C@@]3(C)CC[C@@H]4C[C@@]43[C@H](OC(C)=O)C[C@]12O [VLADIMULIECIN A]
HeLa; hela
  IC50: 167 µM
SMMC-7721; [1]
  IC50: 98.6 µM
HL-60; [2]
  IC50: 99 µM

## CC(=O)O[C@H](C)[C@H]1CC[C@@]2(O)[C@]1(C)CC[C@@H]1[C@@]3(C)CC[C@@H]4C[C@@]43[C@H](O)C[C@]12O [VLADIMULIECIN B]
HeLa; hela
  IC50: 121 µM
SMMC-7721; smmc-7721
  IC50: 104 µM
HL-60; [2]
  IC50: 88 µM
